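Results reflect a 48-hour exposure of cells in 96-well plates to compound at five concentrations. At the GI50, growth is halved. TGI is the concentration that stops growth completely.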
Columns and labels:
Assay in all cases: NCI anticancer screen, dose series, 48 h
HL-60(TB) leukemia = tested on: HL-60(TB) leukemia
SR leukemia = tested on: SR leukemia
HCC-2998 colon = tested on: HCC-2998 colon
OVCAR-8 ovarian = tested on: OVCAR-8 ovarian
MALME-3M melanoma = tested on: MALME-3M melanoma
SK-MEL-2 melanoma = tested on: SK-MEL-2 melanoma
SF-295 CNS = tested on: SF-295 CNS
CAKI-1 renal = tested on: CAKI-1 renal
A549 NSCLC = tested on: A549 NSCLC
SW-620 colon = tested on: SW-620 colon

Row | SMILES | GI50 (HL-60(TB) leukemia) [µM] | TGI (HL-60(TB) leukemia) [µM] | GI50 (SR leukemia) [µM] | TGI (SR leukemia) [µM] | GI50 (HCC-2998 colon) [µM] | TGI (HCC-2998 colon) [µM] | GI50 (OVCAR-8 ovarian) [µM] | TGI (OVCAR-8 ovarian) [µM] | GI50 (MALME-3M melanoma) [µM] | TGI (MALME-3M melanoma) [µM] | GI50 (SK-MEL-2 melanoma) [µM] | TGI (SK-MEL-2 melanoma) [µM] | GI50 (SF-295 CNS) [µM] | TGI (SF-295 CNS) [µM] | GI50 (CAKI-1 renal) [µM] | TGI (CAKI-1 renal) [µM] | GI50 (A549 NSCLC) [µM] | TGI (A549 NSCLC) [µM] | GI50 (SW-620 colon) [µM] | TGI (SW-620 colon) [µM]
1 | C[C@@H](NC(=O)/C(C#N)=C/c1ccc([N+](=O)[O-])cc1)c1ccccc1 | 2.42 | 5.51 | 1.73 | 5.55 | 1.87 | 3.53 | 2.87 | 8.05 | 2.92 | 8.31 | 3.3 | 8.52 | 2.25 | 5.49 | 2.37 | 6.47 | 2.94 | 8.37 | 1.83 | 3.81
2 | Cc1ccc2c(c1)c(Sc1ccc(C(=O)NO)cc1)c1n2CN(C)CC1 | 2.35 | 6.4 | 2.69 | 8.93 | 1.64 | 3.67 | 1.69 | 4.99 | 1.35 | 4.2 | 1.88 | 4.21 | 1.83 | 3.69 | 3.87 | 13.9 | 2.27 | 5.81 | 1.77 | 4.45
3 | N=C(N)SCc1c2ccccc2c(CSC(=N)N)c2ccccc12 | 4.06 | 23.3 | 0.408 | 3.03 | 11.3 | 23.7 | 6.49 | 50.4 | 6.85 | 25.2 | 18 | 41.3 | 5.25 | 24.2 | 7.28 | 27.7 | 3.61 | 30.9 | 3.75 | 19.7
4 | O=C1[C@@H]2C(c3ccccc3[N+](=O)[O-])=[N+](c3ccccc3)O[C@@H]2C(=O)N1c1ccc(Cc2ccc(N3C(=O)[C@H]4C(c5ccccc5[N+](=O)[O-])=[N+](c5ccccc5)O[C@H]4C3=O)cc2)cc1 |  | > 100 |  | > 100 |  | > 100 |  | > 100 |  | 81.6 |  | > 100 |  | > 100 |  | > 100 |  | > 100 |  | > 100
5 | COc1cc(/C(=C2/O[C@@H]([C@H]3COC(C)(C)O3)[C@H]3OC(C)(C)O[C@@H]23)c2ccc3ccccc3c2)cc(OC)c1OC | 74.9 | > 100 | > 100 | > 100 | 6.47 | > 100 | 3.89 | > 100 | 2.07 | 5.59 | 1.53 | 4.12 | 6.92 | 52.1 | 4.54 | > 100 | 3.09 | 9.55 | 4.31 | > 100
6 | CCC(O)C1Cc2c(C)cc3c(c2O1)C(=O)c1ccccc1C3=O (stereo not given) |  | 51.7 |  | > 100 |  | > 100 |  | > 100 |  | 88.6 |  | > 100 |  | 86.8 |  | > 100 |  | > 100 |  | > 100
7 | O=C(OC1CCC2OOC1O2)c1ccc([N+](=O)[O-])cc1 (stereo not given) |  | > 100 |  | > 100 |  | > 100 |  | > 100 |  | > 100 |  | > 100 |  | > 100 |  | > 100 |  | > 100 |  | > 100
8 | N#CCCCCCOCCOCCOCCOCCOCCCCCC#N |  | > 100 |  | > 100 |  | > 100 |  | > 100 |  | > 100 |  | > 100 |  | > 100 |  | > 100 |  | > 100 |  | > 100
9 | C[C@]12CC[C@@H]3c4cc(O)c(O)cc4CC[C@H]3[C@@H]1CC[C@@H]2O | 2.33 | 24.7 | 0.576 | 48.5 | 11.2 | 41.8 | 6.89 | > 100 | 0.708 | 44.4 | 3.23 | 22.2 | 7.19 | 32.9 | 3.83 | > 88.9 | 7.16 | > 82.4 | 2.73 | > 42.5
10 | COc1ccc2c(c1)CC[C@@H]1[C@@H]2CC[C@]2(C)c3c(cc(C(=O)O)c4sccc34)C[C@@H]12 | 8.61 | 25.3 | 16.4 | 45.1 | 11 | 26.7 | 24.5 | 88.1 | 22.6 | 42.7 | 37.5 | > 100 | 14.3 | 31.9 | 33.8 | 63.7 | 11.2 | 35.9 | 16.1 | 36.7

Source: PubChem BioAssay (NCI)
